Patent EP2987533B1, “7-substituted piperazin-1-yl fluoroquinolone compounds, their use in the treatment of cancer, pharmaceutical compositions and a method for preparation” (priority 2014, dated 2016)

Tests used:
[1] = test system: SF-539; assay: NCI five-dose SRB growth assay; type: cell-based; settings: Homo sapiens; SF-539 (CNS Cancer), 48 h
[2] = test system: leukemia; assay: NCI five-dose SRB assay, subpanel average; settings: 48 h; for GI50 / CC50: Homo sapiens; for GI50: read-out: GI50 (median growth inhibitory); for CC50: read-out: LC50 (median lethal); for TGI (total growth inhibitory): average over leukemia subpanel, five concentrations
[3] = test system: NCI/ADR-RES; assay: NCI five-dose SRB growth assay; type: cell-based; settings: Homo sapiens; NCI/ADR-RES (Ovarian Cancer), 48 h
[4] = test system: KM12; assay: NCI five-dose SRB growth assay; type: cell-based; settings: Homo sapiens; KM12 (Colon Cancer), 48 h
[5] = test system: OVCAR-4; assay: NCI five-dose SRB growth assay; type: cell-based; settings: Homo sapiens; OVCAR-4 (Ovarian Cancer), 48 h
[6] = test system: RXF 393; assay: NCI five-dose SRB growth assay; type: cell-based; settings: Homo sapiens; RXF 393 (Renal Cancer), 48 h
[7] = test system: UACC-62; assay: NCI one-dose SRB growth assay; type: cell-based; settings: Homo sapiens; UACC-62 (Melanoma), 10^-5 M, 48 h; read-out: % Growth Inhibition (GI %)
Outline: (§1)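 NCI primary one-dose screen: human tumor lines exposed to test agent (10^-5M, 48 h), then SRB protein staining; results reported as growth % versus no-drug controls.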

[8] = test system: LOX IMVI; assay: NCI one-dose SRB growth assay; type: cell-based; settings: Homo sapiens; LOX IMVI (Melanoma), 10^-5 M, 48 h; read-out: % Growth Inhibition (GI %)
Outline: as §1

[9] = test system: BT-549; assay: NCI one-dose SRB growth assay; type: cell-based; settings: Homo sapiens; BT-549 (Breast Cancer), 10^-5 M, 48 h; read-out: % Growth Inhibition (GI %)
Outline: as §1

[10] = test system: SK-OV-3; assay: NCI one-dose SRB growth assay; type: cell-based; settings: Homo sapiens; SK-OV-3 (Ovarian Cancer), 10^-5 M, 48 h; read-out: % Growth Inhibition (GI %)
Outline: as §1

[11] = test system: NCI-H226; assay: NCI one-dose SRB growth assay; type: cell-based; settings: Homo sapiens; NCI-H226 (Non-Small Cell Lung Cancer), 10^-5 M, 48 h; read-out: % Growth Inhibition (GI %)
Outline: as §1

[12] = test system: ACHN; assay: NCI one-dose SRB growth assay; type: cell-based; settings: Homo sapiens; ACHN (Renal Cancer), 10^-5 M, 48 h; read-out: % Growth Inhibition (GI %)
Outline: as §1

[13] = test system: TK-10; assay: NCI one-dose SRB growth assay; type: cell-based; settings: Homo sapiens; TK-10 (Renal Cancer), 10^-5 M, 48 h; read-out: % Growth Inhibition (GI %)
[14] = test system: SK-MEL-2; assay: NCI one-dose SRB growth assay; type: cell-based; settings: Homo sapiens; SK-MEL-2 (Melanoma), 10^-5 M, 48 h; read-out: % Growth Inhibition (GI %)
[15] = test system: SF-295; assay: NCI one-dose SRB growth assay; type: cell-based; settings: Homo sapiens; SF-295 (CNS Cancer), 10^-5 M, 48 h; read-out: % Growth Inhibition (GI %)
Outline: as §1

[16] = test system: NCI-H522; assay: NCI one-dose SRB growth assay; type: cell-based; settings: Homo sapiens; NCI-H522 (Non-Small Cell Lung Cancer), 10^-5 M, 48 h; read-out: % Growth Inhibition (GI %)
Outline: as §1

[17] = test system: MALME-3M; assay: NCI one-dose SRB growth assay; type: cell-based; settings: Homo sapiens; MALME-3M (Melanoma), 10^-5 M, 48 h; read-out: % Growth Inhibition (GI %)
Outline: as §1

[18] = test system: NCI-H23; assay: NCI one-dose SRB growth assay; type: cell-based; settings: Homo sapiens; NCI-H23 (Non-Small Cell Lung Cancer), 10^-5 M, 48 h; read-out: % Growth Inhibition (GI %)
Outline: as §1

[19] = test system: SNB-19; assay: NCI one-dose SRB growth assay; type: cell-based; settings: Homo sapiens; SNB-19 (CNS Cancer), 10^-5 M, 48 h; read-out: % Growth Inhibition (GI %)
Outline: as §1

[20] = test system: RXF 393; assay: NCI one-dose SRB growth assay; type: cell-based; settings: Homo sapiens; RXF 393 (Renal Cancer), 10^-5 M, 48 h; read-out: % Growth Inhibition (GI %)
Outline: as §1

[21] = test system: NCI-H226; assay: NCI five-dose SRB growth assay; type: cell-based; settings: Homo sapiens; NCI-H226 (Non-Small Cell Lung Cancer), 48 h
[22] = test system: prostate cancer; assay: NCI five-dose SRB assay, subpanel average; settings: 48 h; for GI50 / CC50: Homo sapiens; for GI50: read-out: GI50 (median growth inhibitory); for CC50: read-out: LC50 (median lethal); for TGI (total growth inhibitory): average over prostate cancer subpanel, five concentrations
[23] = test system: HT29; assay: NCI five-dose SRB growth assay; type: cell-based; settings: Homo sapiens, HT-29; HT29 (Colon Cancer), 48 h
[24] = test system: HS 578T; assay: NCI five-dose SRB growth assay; type: cell-based; settings: Homo sapiens; HS 578T (Breast Cancer), 48 h
[25] = test system: HOP-92; assay: NCI five-dose SRB growth assay; type: cell-based; settings: Homo sapiens; HOP-92 (Non-Small Cell Lung Cancer), 48 h
[26] = test system: ovarian cancer; assay: NCI five-dose SRB assay, subpanel average; settings: 48 h; for GI50 / CC50: Homo sapiens; for GI50: read-out: GI50 (median growth inhibitory); for CC50: read-out: LC50 (median lethal); for TGI (total growth inhibitory): average over ovarian cancer subpanel, five concentrations
[27] = test system: CNS cancer; assay: NCI five-dose SRB assay, subpanel average; settings: 48 h; for GI50 / CC50: Homo sapiens; for GI50: read-out: GI50 (median growth inhibitory); for CC50: read-out: LC50 (median lethal); for TGI (total growth inhibitory): average over CNS cancer subpanel, five concentrations
[28] = test system: MOLT-4; assay: NCI five-dose SRB growth assay; type: cell-based; settings: Homo sapiens; MOLT-4 (Leukemia), 48 h
[29] = test system: SK-MEL-28; assay: NCI five-dose SRB growth assay; type: cell-based; settings: Homo sapiens; SK-MEL-28 (Melanoma), 48 h

Compound	GI50 [1] [µM]	GI50 [2] [µM]	CC50 [2] [µM]	TGI (total growth inhibitory) [2] [µM]	GI50 [3] [µM]	GI50 [4] [µM]	inhibition at 10 µM [7] [%]	inhibition at 10 µM [8] [%]	inhibition at 10 µM [9] [%]	inhibition at 10 µM [10] [%]	inhibition at 10 µM [11] [%]	inhibition at 10 µM [12] [%]	inhibition at 10 µM [13] [%]	inhibition at 10 µM [14] [%]	inhibition at 10 µM [15] [%]	inhibition at 10 µM [16] [%]	inhibition at 10 µM [17] [%]	inhibition at 10 µM [18] [%]	inhibition at 10 µM [19] [%]	inhibition at 10 µM [20] [%]	also measured
Cc1cc(C)c(S(=O)(=O)N2CCN(c3cc4c(cc3F)c(=O)c(C(=O)O)cn4C3CC3)CC2)c(C)c1 [Compound 6b]	3.14	2.57	> 100	76.70	3.29	3.38	23.4	70.4	22.7	18.4	28.2	48.7	13.5	< 10	66.8	32.7	40.3	42.6	33.7	48.7	GI50 [5]: 2.37 µM; GI50 [6]: 2.41 µM; GI50 [21]: 1.23 µM; GI50 [22]: 3.4 µM; CC50 [22]: > 100 µM; TGI (total growth inhibitory) [22]: c (Compounds showed values > 100µM); GI50 [23]: 3.15 µM; GI50 [24]: 2.4 µM; GI50 [25]: 1.52 µM; GI50 [26]: 2.89 µM; CC50 [26]: > 100 µM; TGI (total growth inhibitory) [26]: c (Compounds showed values > 100µM); GI50 [27]: 2.95 µM; CC50 [27]: > 100 µM; TGI (total growth inhibitory) [27]: c (Compounds showed values > 100µM)
CCn1cc(C(=O)O)c(=O)c2cc(F)c(N3CCN(S(=O)(=O)c4ccc(Cl)cc4)CC3)cc21 [Compound 1a]	4.12	2.89	> 100	80.96	2.98	4.07	78.5	80.1	87.4	59.2	39.9	71.3	46.4	56.2	96.1	91.6	76.2	> 100	79.4	86.6	GI50 [5]: 2.2 µM; GI50 [28]: 3.83 µM; GI50 [6]: 3.32 µM; GI50 [21]: 3.02 µM; GI50 [22]: 3.21 µM; CC50 [22]: > 100 µM; TGI (total growth inhibitory) [22]: 54.11 µM; GI50 [23]: 2.64 µM; GI50 [24]: 4.52 µM; GI50 [26]: 3.16 µM; CC50 [26]: > 100 µM; TGI (total growth inhibitory) [26]: 54.29 µM; GI50 [27]: 3.57 µM; CC50 [27]: > 100 µM; TGI (total growth inhibitory) [27]: 70.26 µM; GI50 [29]: 4.88 µM
CCn1cc(C(=O)O)c(=O)c2cc(F)c(N3CCN(S(=O)(=O)c4c(C)cc(C)cc4C)CC3)cc21 [Compound 6a]							24.1	38.7	26.3	< 10	23.1	24.2	< 10	11.3	51.6	13.5	< 10	22.3	10.1	11.1	
